Several values for one entry are separate records, joined by “and”; a condition that tells them apart may be missing. Identical values can stand only once.
What was measured:
[1] = system: ECLC5B cells; test: Growth inhibition (alamarBlue, 96 h); type: cell-based, human; conditions: ECLC5B; for raw viability signal (Source Data Fig. 3b-c): replicates
[2] = system: TT cells; test: Growth inhibition (alamarBlue, 96 h); type: cell-based, human; conditions: for raw viability signal (Source Data Fig. 3b-c): replicate sets
[3] = system: LUAD-0057BS1 cells; test: Growth inhibition (alamarBlue, 96 h); type: cell-based, human; conditions: for raw viability signal (Source Data Fig. 3b-c): LUAD-0057BS1, replicate sets
[4] = system: ECLC5 luciferase cells implanted intracranially; test: Intracranial efficacy study; type: in vivo, NSG mice; conditions: Fig. 8e (middle panel) ECLC5 luminescence; 50 mg/kg BID
[5] = system: LUAD-0087AS2 cells; test: Growth inhibition (alamarBlue, 96 h); type: cell-based, human; conditions: for raw viability signal (Source Data Fig. 3b-c): LUAD-0087AS2, replicate sets
[6] = system: Ba/F3-RET^M918T; test: Growth inhibition assay in Ba/F3 cells (CellTiter-Glo, 72 h); type: cell-based; conditions: Mus musculus, BaF3, 72 h, Ba/F3-RET^M918T, CellTiter-Glo, 72 h; read-out: GI50 value (Mean ± SD)
[7] = Homo sapiens, read-out: IC50 for Inhibition of Growth (95% CI), alamarBlue, 96 h

COc1cc2c(Nc3ccc(Br)cc3F)ncnc2cc1OCC1CCN(C)CC1 [Vandetanib]
raw viability signal (Source Data Fig. 3b-c) ([1]; 0.01 nM): 9731.41 and 6613.39 and 26019.7 | raw viability signal (Source Data Fig. 3b-c) ([1]; 0.1 nM): 10719.9 and 7303.21 and 26332.1 | raw viability signal (Source Data Fig. 3b-c) ([1]; 1 nM): 7568.32 and 25576 | raw viability signal (Source Data Fig. 3b-c) ([1]; 10 nM): 10376.5 and 7240.47 and 24146.6 | raw viability signal (Source Data Fig. 3b-c) ([1]; 100 nM): 8370.2 and 5534.52 and 20059.6 | raw viability signal (Source Data Fig. 3b-c) ([1]; 1000 nM): 1326.74 and 1175.68 and 3727.83 | raw viability signal (Source Data Fig. 3b-c) ([1]; 10000 nM): 1185.45 and 1144.21 and 2595.71 | IC50 [1, 7]: 248 nM | raw viability signal (Source Data Fig. 3b-c) ([2]; 0.01 nM): 24130.4 and 28596.3 and 33849.7 and 15452.6 | raw viability signal (Source Data Fig. 3b-c) ([2]; 0.1 nM): 23355.5 and 28594.1 and 36565.2 | raw viability signal (Source Data Fig. 3b-c) ([2]; 1 nM): 22374.7 and 27607.6 and 35010.1 and 13701.7 | raw viability signal (Source Data Fig. 3b-c) ([2]; 10 nM): 16858.1 and 26132.6 and 31759.9 and 13240.5 and 11997.4 | raw viability signal (Source Data Fig. 3b-c) ([2]; 100 nM): 9840.2 and 25256.2 and 32238.5 and 11048.8 and 6020.05 | raw viability signal (Source Data Fig. 3b-c) ([2]; 1000 nM): 9436.58 and 12629.1 and 19662.7 and 4747.88 and 2242.82 | raw viability signal (Source Data Fig. 3b-c) ([2]; 10000 nM): 6954.01 and 10117.3 and 4217.75 and 1470.42 | IC50 [2, 7]: 90 nM | IC50 ([3]; Homo sapiens, read-out: IC50 for Inhibition of Growth (95% CI), LUAD-0057BS1, alamarBlue, 96 h): 363 nM | raw viability signal (Source Data Fig. 3b-c) ([3]; 0.01 nM): 17034.2 and 23597.8 | raw viability signal (Source Data Fig. 3b-c) ([3]; 0.1 nM): 16283.3 and 21948.2 | raw viability signal (Source Data Fig. 3b-c) ([3]; 1 nM): 16965.6 and 22300.3 | raw viability signal (Source Data Fig. 3b-c) ([3]; 10 nM): 14389.1 and 16776.9 and 22078.9 | raw viability signal (Source Data Fig. 3b-c) ([3]; 100 nM): 13528.1 and 13127 and 19841.4 | raw viability signal (Source Data Fig. 3b-c) ([3]; 1000 nM): 5066.49 and 6132.7 and 5277.44 | raw viability signal (Source Data Fig. 3b-c) ([3]; 10000 nM): 837.183 and 963.777 and 796.086 | Area Under Curve Mean [4]: -890991750 | IC50 ([5]; Homo sapiens, read-out: IC50 for Inhibition of Growth (95% CI), LUAD-0087AS2, alamarBlue, 96 h): 264 nM | raw viability signal (Source Data Fig. 3b-c) ([5]; 0.01 nM): 12332.1 and 13934.5 and 13930.1 | raw viability signal (Source Data Fig. 3b-c) ([5]; 0.1 nM): 10316.9 and 14234.5 and 13979.9 | raw viability signal (Source Data Fig. 3b-c) ([5]; 1 nM): 14707.2 and 14551.9 and 13357 | raw viability signal (Source Data Fig. 3b-c) ([5]; 10 nM): 9639.26 and 14042.7 | raw viability signal (Source Data Fig. 3b-c) ([5]; 100 nM): 8268.62 and 14329.9 and 11925.1 | raw viability signal (Source Data Fig. 3b-c) ([5]; 1000 nM): 3107.74 and 4188.25 and 2159.6 and 1975.84 | raw viability signal (Source Data Fig. 3b-c) ([5]; 10000 nM): 1739.1 and 865.962 and 878.418 and 892.669 | GI50 [6]: 39.9 ± 15.2 nM
